We go through seven compounds from patent US4172145A, “Benzo(b)furylacetic acid derivatives to reduce inflammation” (priority 1975, dated 1979).

In series [1] the test system is pain threshold of inflamed and not inflamed paws of rats. Kind of series: Analgesic activity in rats (Randall-Selitto Method). The settings on record: Rattus norvegicus, po, P.O. 150 mg/kg, read-out: Analgesic Coefficient. Type of series: in vivo, rat (male Wister strain). The procedure: A group consisting of 6-7 rats (male Wister strain; weight: 100-120 g) was used for the test and control groups in this test. Each rat of both groups was treated with 0.1 ml of a 1% carrageenin solution as phlogistic agent by subcutaneous injection in one hind paw. 3 hours after the administration, pressure was applied to the treated paw of each rat by means of a pressing device (manufactured by Ugobasile S. A., Italy). The threshold of pain induced by press was measured with reference to the shriek and struggle according to the method of Randall and Selitto [Randall, L. O. and Selitto, J. J.; Arch, Int. Pharmocodyn., 111, 409 (1957)]. From each group 5 rats having a good response reaction, i.e. the pain threshold was not more than 70 g, were respectively selected. […] 1, 2 and 3 hours after administration, pressure was again applied to both the inflamed and not inflamed paws of the test rats and the pain threshold was measured. On the other hand, without the administration of the active compound, the pressure was applied to both the inflamed and not inflamed paws of the selected 5 rats of the control group and the pain threshold was measured. The inflamed paws of the test and control groups were compared with each other. Also the not inflamed paws of the both groups were compared with each other.
The analgesic coefficient was calculated by means of the following equation, and the larger analgesic coefficient the better analgesic activity. [formula] in which X: analgesic coefficient (%)
P1 : threshold (g) of the test rats administered with active compounds
P2 : threshold (g) of the control rats without administration of active compound

Series [2] in a line: in vivo. The settings on record: oral, observed one week, Litchfield and Wilcoxon. The protocol:
In this test, five groups, each consisting of 5 mice (male dd strain; weight: 19-21 g) and 5 rats (male Wistar strain; weight: 100-120 g) were used. […] The LD50 was calculated according to the method of Litchfield and Wilcoxon [Journal of Pharmacol. and Exper. Therap.

A short description of series [3]: in vivo. The settings on record: rat, po. The protocol: A test group consisting of 10-15 rats (male Wistar strain; weight: 180-220 g) was used in this test. Each rat was fasted for 20 hours, but water was allowed ad libitum. The compounds shown in Table 5 were administered orally. After a 20-hour interval during which the rats were not fed but were allowed water, each rat was administered under ether anesthesia with 0.5 ml per 100 g body weight of a 5% solution of pontamine sky blue 6BX in saline (pH 7.2--adjusted with 0.5 N HCl) by intravenous injection. 15 minutes after administration each rat was killed. The stomach was removed and maintained in a 1% formalin solution. After about 2 hours, the stomach was opened along the greater curvature and the length of lesions (dark blue areas against pale blue background) in the glandular portion was measured under a dissecting microscope (10×) provided with a square grid. The sum of the lengths (mm) of lesions was used as ulcer index.

The subject of series [4] is carrageenin-induced edema on the hind paw of rats. Briefly: Anti-edema effect on carrageenin-induced edema on the hind paw of rats (Carrageenin Edema Method). Type of series: in vivo, rat (male Wistar strain). To be noted: rat, oral, 3 hours after carrageenin; for inhibition in vivo at 75 mg/kg / inhibition in vivo at 150 mg/kg / inhibition in vivo at 300 mg/kg: read-out: Anti-edema Effect, Suppression Ratio. The protocol: The anti-edema effect was determined according to the method of Yamazaki et al [Yamazaki, H., et al; Folia Pharmacologica Japonica, 63, 302 (1967)].
In this test, a group consisting of five rats (male Wistar strain: weight 100-120 g) was used for the test and control groups. The compounds shown in Table 2 were administered orally to the rats of the test group. After one hour, 0.1 ml of a 1% carrageenin solution (phlogistic agent) was further administered to each rat by subcutaneous injection in one hind paw. To each rat of the control group, 0.1 ml of a 1% carrageenin solution was also administered in a similar manner to that for test rats. 1, 3 and 5 hours after administration of the phlogistic agent, the swelling ratio was calculated by means of the following equation: […]
Test group [formula] in which b: swelling ratio
B: volume of a hind paw without administration of phlogistic agent
B': volume of a hind paw administered with phlogistic agent
Control group [formula] in which a: swelling ratio
A: volume of a hind paw without administration of phlogistic agent
A': volume of a hind paw administered with phlogistic agent
The anti-edema effect was expressed as the suppression ratio of the edema in comparison with the control group to which the test compound had not been administered. The suppression ratio of the edema was determined 3 hours after administration of the phlogistic agent and was calculated by means of the following equation: [formula] in which a and b are as hereinbefore defined.
For orientation: Carrageenan injected into the paw causes an acute inflammation.

Series [5] relates to acetic acid-induced writhing reactions in mice. Kind of series: Analgesic activity in mice (AcOH Writhing Method). The format is in vivo, mouse (male dd-strain). To be noted: mouse, oral; for inhibition in vivo at 150 mg/kg / inhibition in vivo at 300 mg/kg: 1 h before acetic acid, read-out: Analgesic Effect (AcOH Writhing Method), Suppression Ratio; for ED50: read-out: Analgesic Effect (AcOH Writhing Method), ED50. The protocol: In this test, three groups, each consisting of 10 mice (male dd-strain; weight: 19-21 g) were used. The compounds shown in Table 3 were administered orally to the test mice. One hour after the administration, the mice were treated with 0.1 ml/10 g of 0.7% acetic acid solution in physiological saline by intraperitoneal injection according to the method of Koster et al [Koster, R., et al; Fed. Proc., 18, 412 (1959)]. Ten minutes after the treatment, the number of writhing reactions occurring in the mice was counted.
On the technique in general: An intraperitoneal irritant provokes the stretching counted in writhing tests.

The conditions of series [6]: Eur. J. Med. Chem. 1975-10, N. 2, p. 182-186; cited from earlier work.
For series [7] the following is noted: Eur. J. Med. Chem. 1975-10, N. 2, p. 182-186; cited from earlier work. This is another data set of the same source.
The mark [8] stands for this setting: mouse, read-out: Acute Toxicity (P.O.), LD50, Mouse.
The mark [9] stands for this setting: rat, read-out: Acute Toxicity (P.O.), LD50, Rat.

Read-outs that look alike come from different tables or passages of the source. A value given as a limit tells only on which side of the number the result lay.

One may read the LD50 as the dose at which mortality reaches 50%. The ED50 is the dose that gives a 50% effect, or the effect in half of the subjects.

With `Cc1c(CC(=O)O)oc2ccc(Cl)cc12` [Test Compound 2, 5-chloro-3-methyl-2-benzo(b)furylacetic acid], the change in vivo at 150 mg/kg in series [1] (1 h, inflamed paw, 1 hr.) was found to be 25.1%; in series [1] (1 h, not inflamed paw, 1 hr.), 0.5%; in series [1] (2 h, inflamed paw, 2 hr.), 17.8%; in series [1] (2 h, not inflamed paw, 2 hr.) it was 1.3%; in series [1] (3 h, inflamed paw, 3 hr.), 16.3%; in series [1] (3 h, not inflamed paw, 3 hr.), 2.4%. The LD50 at 168 h was determined as 800 mg/kg in “in vivo [2]” (setting [8]) and 425 mg/kg in the series “in vivo [2]” (setting [9]). In the series “in vivo [3]”, this compound registered a TD50 at 20 h of 230 mg/kg. Besides, the inhibition in vivo at 75 mg/kg in series [4] turned out to be 45.7%. Besides, the inhibition in vivo at 150 mg/kg stood at 63.3% in series [4] and 35.9% in series [5]. The inhibition in vivo at 300 mg/kg turned out to be 74.2% in series [4] and 68.8% in series [5]. Also, the median effective dose (ED50) amounted to 980 mg/kg in series [4] and 190 mg/kg in series [5].

Regarding `COc1ccc2oc(CC(=O)O)c(C)c2c1` [Test Compound 3, 5-methoxy-3-methyl-2-benzo(b)furylacetic acid], the change in vivo at 150 mg/kg in series [1] (1 h, inflamed paw, 1 hr.) was 24.1%; in series [1] (1 h, not inflamed paw, 1 hr.), 1.9%; in series [1] (2 h, inflamed paw, 2 hr.) it was 5.2%; in series [1] (2 h, not inflamed paw, 2 hr.), 0%; in series [1] (3 h, inflamed paw, 3 hr.) it was 0%; in series [1] (3 h, not inflamed paw, 3 hr.) it was 0%. Besides, the LD50 at 168 h in the series “in vivo [2]” (setting [8]) was 1110 mg/kg; in “in vivo [2]” (setting [9]), greater than 1000 mg/kg. In the series “in vivo [3]”, this compound showed a TD50 at 20 h greater than 300 mg/kg. The inhibition in vivo at 75 mg/kg in series [4] amounted to 34.5%. The inhibition in vivo at 150 mg/kg in series [4] worked out at 60.8%; in series [5], 20.8%. Further, the inhibition in vivo at 300 mg/kg was determined as 73.1% in series [4] and 53.6% in series [5]. For the same compound, the ED50 is 110 mg/kg in series [4] and 280 mg/kg in series [5].

For `Cc1ccc2oc(CC(=O)O)c(C)c2c1` [Test Compound 4, 3,5-dimethyl-2-benzo(b)furylacetic acid], the change in vivo at 150 mg/kg in series [1] (1 h, inflamed paw, 1 hr.) is 35.4%; in series [1] (1 h, not inflamed paw, 1 hr.) it was 0%; in series [1] (2 h, inflamed paw, 2 hr.), 18.8%; in series [1] (2 h, not inflamed paw, 2 hr.) it was 0%; in series [1] (3 h, inflamed paw, 3 hr.), 7.1%; in series [1] (3 h, not inflamed paw, 3 hr.), 0%. The LD50 at 168 h in the series “in vivo [2]” (setting [8]) is 1310 mg/kg; in the series “in vivo [2]” (setting [9]) it was greater than 1000 mg/kg. This compound displayed a TD50 at 20 h in “in vivo [3]” greater than 300 mg/kg. Also, the inhibition in vivo at 75 mg/kg in series [4] came out at 43.8%. Besides, the inhibition in vivo at 150 mg/kg in series [4] stood at 56.2%; in series [5] it was 11.2%. Also, the inhibition in vivo at 300 mg/kg came out at 70.9% in series [4] and 41.4% in series [5]. In addition, the figures for the ED50 in series [4] and in series [5] were 100 mg/kg and 350 mg/kg, respectively.

As to `Cc1c(CC(=O)O)oc2ccc(F)cc12` [Test Compound 5, 5-fluoro-3-methyl-2-benzo(b)furylacetic acid], the change in vivo at 150 mg/kg came to 38.6% in series [1] (1 h, inflamed paw, 1 hr.); 0% in series [1] (1 h, not inflamed paw, 1 hr.); 23.5% in series [1] (2 h, inflamed paw, 2 hr.); 0% in series [1] (2 h, not inflamed paw, 2 hr.); 19.3% in series [1] (3 h, inflamed paw, 3 hr.); 0% in series [1] (3 h, not inflamed paw, 3 hr.). Moreover, the LD50 at 168 h in the series “in vivo [2]” (setting [8]) is 1750 mg/kg; in the series “in vivo [2]” (setting [9]), greater than 1000 mg/kg. Also, the TD50 at 20 h in the series “in vivo [3]” was greater than 300 mg/kg. The inhibition in vivo at 75 mg/kg in series [4] was determined as 37.9%. For the same compound, the values for the inhibition in vivo at 150 mg/kg in series [4] and in series [5] were 60% and 26%, respectively. For the same compound, the results for the inhibition in vivo at 300 mg/kg in series [4] and in series [5] were 71.9% and 41.4%, respectively. Further, the ED50 amounted to 105 mg/kg in series [4] and 380 mg/kg in series [5].

For `O=C(O)Cc1cc2cc(Cl)ccc2o1` [chloro-5 benzoful-2-acetate], the toxicity versus phenylbutazone result in series [6] is on record as “minor toxicity than phenylbutazone”. The “anti-inflammatory activity versus phenylbutazone” value in series [7] was “lower anti-inflammatory activity”.

With `O=C(O)c1cc2cc(Cl)ccc2o1` [chloro-5-benzo(b)furyl-2 carboxylic acid], the toxicity versus phenylbutazone entry in series [6] was “minor toxicity than phenylbutazone”. The “anti-inflammatory activity versus phenylbutazone” value in series [7] is listed as “lower anti-inflammatory activity”.

`COc1ccc2oc(CC(=O)O)cc2c1` [methoxy-5 benzo(b)furyl-2-acetate]: the toxicity versus phenylbutazone result in series [6] is “minor toxicity than phenylbutazone”. Also, in series [7], the “anti-inflammatory activity versus phenylbutazone” value is given as “lower anti-inflammatory activity”.
